Laboratory results published in US20130245355A1, “3-HETARYL-SUBSTITUTED PYRROLO[2,3 B]PYRIDINE DERIVATIVES AS PDK1 INHIBITORS” (MERCK PATENT GMBH, priority 2010, published 2013).

Key:
PDK1 [1] = biological target: T1, PDK1 (Homo sapiens, UniProt O15530); test: Cellular testing of PDK1 kinase inhibitors in PC3 cells (Luminex, phospho-T308-PKB); format: cell-based; settings: 30 min, serum-free
T1 construct: endogenous in cells; host or cells: PC3 cells
T1 sequence (O15530 1-556): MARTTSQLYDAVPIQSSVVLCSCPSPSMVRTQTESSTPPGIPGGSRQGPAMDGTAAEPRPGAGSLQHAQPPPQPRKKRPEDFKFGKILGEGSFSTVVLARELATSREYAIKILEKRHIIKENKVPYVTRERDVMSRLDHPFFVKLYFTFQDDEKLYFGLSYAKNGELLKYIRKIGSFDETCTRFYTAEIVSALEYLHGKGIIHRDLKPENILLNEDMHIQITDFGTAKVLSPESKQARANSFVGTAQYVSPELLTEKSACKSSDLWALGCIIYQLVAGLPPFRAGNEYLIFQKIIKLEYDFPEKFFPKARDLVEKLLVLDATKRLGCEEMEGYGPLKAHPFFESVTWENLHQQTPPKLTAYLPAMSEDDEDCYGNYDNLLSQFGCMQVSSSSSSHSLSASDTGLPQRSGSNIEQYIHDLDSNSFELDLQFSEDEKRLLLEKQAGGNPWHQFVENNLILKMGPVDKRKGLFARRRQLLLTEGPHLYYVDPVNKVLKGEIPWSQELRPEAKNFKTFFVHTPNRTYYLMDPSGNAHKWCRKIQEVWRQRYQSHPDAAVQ
How it was run: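 PC3 cells were treated 30 min serum-free with 7-concentration compound series, lysed, and phospho-T308-PKB measured by Luminex bead assay (anti-total PKB capture, phospho-T308 detection). Blank was 10 μM staurosporine; maximum was 0.3% DMSO; IC50 derived from percent of control.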

PDK1 [2] = biological target: T2, PDK1 (Homo sapiens, UniProt O15530); test: Test for the inhibition of PDK1 (flashplate, 33P-ATP); settings: His6-PDK1 (1-50) 3.4 nM, 4 μM ATP, 30° C., 60 min; read-out: IC50 [PDK1] biochemical
T2 construct: His6 (N)
T2 sequence (O15530 51-556 limits assumed): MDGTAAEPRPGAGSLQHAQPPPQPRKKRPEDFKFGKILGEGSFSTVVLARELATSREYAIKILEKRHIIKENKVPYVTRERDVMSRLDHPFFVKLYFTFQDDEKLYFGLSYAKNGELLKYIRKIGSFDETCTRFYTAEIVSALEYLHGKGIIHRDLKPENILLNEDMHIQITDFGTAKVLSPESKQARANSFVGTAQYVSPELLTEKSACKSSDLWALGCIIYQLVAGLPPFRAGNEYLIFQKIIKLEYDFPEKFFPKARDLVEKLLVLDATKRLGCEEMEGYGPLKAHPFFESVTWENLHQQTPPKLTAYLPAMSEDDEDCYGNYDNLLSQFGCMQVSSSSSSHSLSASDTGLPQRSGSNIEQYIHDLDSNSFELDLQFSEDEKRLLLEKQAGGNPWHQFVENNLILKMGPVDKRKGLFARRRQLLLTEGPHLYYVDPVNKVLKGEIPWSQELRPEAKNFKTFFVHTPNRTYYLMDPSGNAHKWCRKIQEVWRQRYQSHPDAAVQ
How it was run: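 His6-PDK1 (1-50) (3.4 nM) with biotinylated peptide substrate (400 nM) and 4 μM ATP plus ^33P-ATP, 60 min at 30° C; incorporated radioactivity counted. Blank from 100 nM staurosporin subtracted, activity expressed as % of compound-free control, IC50 derived from dilution series.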

IC50 (PDK1 [1]) [nM] | IC50 (PDK1 [2]) [nM] | SMILES
1000 to 10000 | 0.5 to 1000 | Cn1cc(-c2cnc3[nH]cc(-c4n[nH]c(C5(c6cccnc6)CC5)n4)c3c2)cn1 [A125, 5-(1-methyl-1H-pyrazol-4-yl)-3-[5-(1-pyridin-3-ylcyclopropyl)-1H-1,2,4-triazol-3-yl]-1H-pyrrolo[2,3-b]pyridine]
1000 to 10000 | 0.5 to 1000 | Cn1cc(-c2cnc3[nH]cc(-c4n[nH]c(C5(c6ccc(=O)[nH]c6)CC5)n4)c3c2)cn1 [A126, 5-(1-{5-[5-(1-methyl-1H-pyrazol-4-yl)-1H-pyrrolo[2,3-b]pyridin-3-yl]-2H-1,2,4-triazol-3-yl}cyclopropyl)-1H-pyridin-2-one]
1000 to 10000 | 1000 to 10000 | COc1ccc(C2(c3nc(-c4c[nH]c5ncc(-c6cnn(C)c6)cc45)n[nH]3)CC2)cn1 [A127, 3-{5-[1-(6-methoxypyridin-3-yl)cyclopropyl]-1H-1,2,4-triazol-3-yl}-5-(1-methyl-1H-pyrazol-4-yl)-1H-pyrrolo[2,3-b]pyridine]
1000 to 10000 | 1000 to 10000 | COC(=O)c1ccc(C(O)c2nnc(-c3c[nH]c4ncc(-c5cnn(C)c5)cc34)o2)c(Cl)c1 (stereo not shown) [A128, methyl 3-chloro-4-(hydroxy-{5-[5-(1-methyl-1H-pyrazol-4-yl)-1H-pyrrolo[2,3-b]-pyridin-3-yl]-1,3,4-oxadiazol-2-yl}methyl)benzoate]
1000 to 10000 | 0.5 to 1000 | Cn1cc(-c2cnc3[nH]cc(-c4nnc(C(C)(O)c5ccccc5Cl)o4)c3c2)cn1 (stereo not shown) [A132, I-(2-chlorophenyl)-1-{5-[5-(1-methyl-1H-pyrazol-4-yl)-1H-pyrrolo[2,3-b]pyridin-3-yl]-1,3,4-oxadiazol-2-yl}ethanol]
